In patent US5534260A, “Percutaneous drug delivery system” (priority 1994, dated 1996):
“And” between values parts separate entries of the source, which are not always exact repeats. Equal entries are not always repeated. “Also recorded” adds a separate entry of the source. Where two headings read alike, the source gives them in different places.

Assays:
[1] = Effect of non-enzyme components in admixture with papain on penetration of 14C-TEAB (Example IV); settings: 14C-TEAB through pretreated skin (n = 1 for components alone, n = 2 combinations, n = 3 papain 0.0465 mg/ml 24 hours)
[2] = Effect of pH on drug penetration through normal untreated hairless mouse skin (Example V A); assay type: in vitro ADME; settings: for P (permeability): mouse
[3] = Effect of pH on drug penetration through hairless mouse skin pretreated with papain (Example V B); assay type: in vitro ADME
Text: B. Effect of pH on drug penetration through hairless mouse
skin Pretreated with sigma papain of concentration 0.093

[4] = Fourier Transform Infrared spectroscopy of stratum corneum; parameters: species or system mouse; settings: for Absorbance in protein areas, peak position: Table I
Protocol: A. Comparisons of normal stratum corneum (from mouse skin) to stratum corneum treated with a 0.09% concentration of papain for 24 hours was performed using Fourier Transform Infrared spectroscopy (FTIR). […] It is postulated that a shift from a random form of protein to the more organized beta sheet structure occurs. The alpha-helix structures of skin protein could be fractionated, uncoiled, or both.
A comparison of symmetric and asymmetric CH stretch bands was then made. These two bands represent lipid structure and would show any changes in the stratum corneum lipids caused by the papain.
B. Azone™ was tested as a permeation enhancer with and without the presence of papain.

in vitro = settings: mouse
[5] = Penetration of polypeptides through papain-pretreated mouse skin, SDS-PAGE; assay type: in vitro ADME; settings: for fragmentation of diffused polypeptide: diffused through papain treated skin, SDS-PAGE
Text: After papain skin treatment pursuant to Example III.1 above, polypeptides were diffused through the pretreated mouse skin using the same concentration and pH values for each test. Pure buffer solution was also diffused through the pretreated skin of the mouse to determine if any endogenous proteins diffused into the diffusate.
Comparisons of solutions of non-diffused polypeptides, diffused polypeptides and diffused buffer solutions were made using gel electrophoresis. The system used for these determinations was sodium dodecyl sulfate polyacrylamide gel electrophoresis (SDS-PAGE), a procedure well-known in the art. These comparisons determined if fragmentation of the diffused polypeptide molecules occurred.
A series of polypeptides of various molecular weights were studied.

[6] = mouse
[7] = pH 5.9, sigma papain 0.093 mg/ml for 24 hours
[8] = pH 6.6, sigma papain 0.093 mg/ml for 24 hours
[9] = pH 7.4, sigma papain 0.093 mg/ml for 24 hours
[10] = pH 8.0, sigma papain 0.093 mg/ml for 24 hours
[11] = TEAB, pretreated with papain 0.010 mg/0.108 ml (0.093 mg/ml)
[12] = TEAB, pretreated with papain 0.170 mg/0.602 ml (0.278 mg/ml)
[13] = TEAB, pretreated with papain 0.170 mg/0.200 ml ([…])

CCCCCCCC/C=C\CCCCCCCCO [10% oleyl alcohol, oleyl alcohol]
J (flux) [1]: 1.49 × 10^-4 mg cm^-2 s^-1

CC(=O)OCC[N+](C)(C)C.[Cl-] [Acetylcholine Chloride, acetylcholine chloride]
J (flux) ([2]; pH 5.9): 5.83 × 10^-6 mg/cm^2 /sec
J (flux) ([2]; pH 6.6): 5.21 × 10^-6 mg/cm^2 /sec
J (flux) ([2]; pH 7.4): 6.41 × 10^-6 mg/cm^2 /sec
J (flux) ([2]; pH 8.0): 9.32 × 10^-6 mg/cm^2 /sec
E (enhancement) [3, 7]: 103.09
J (flux) [3, 7]: 6.00 × 10^-4 mg/cm^2 /sec
P (permeability) [3, 7]: 3 ×10⁻⁶ cm/s
E (enhancement) [3, 8]: 149.23
J (flux) [3, 8]: 7.77 × 10^-4 mg/cm^2 /sec
P (permeability) [3, 8]: 3.88 ×10⁻⁶ cm/s
E (enhancement) [3, 9]: 100.94
J (flux) [3, 9]: 6.46 × 10^-4 mg/cm^2 /sec
P (permeability) [3, 9]: 3.23 ×10⁻⁶ cm/s
E (enhancement) [3, 10]: 67.38
J (flux) [3, 10]: 6.28 × 10^-4 mg/cm^2 /sec
P (permeability) [3, 10]: 3.14 ×10⁻⁶ cm/s

C=CCc1ccccc1OCC(O)CNC(C)C (stereo not shown) [Alprenolol]
P (permeability) ([2]; pH 5.9): 0.0536 ×10⁻⁶ cm/s
P (permeability) ([2]; pH 7.4): 0.184 ×10⁻⁶ cm/s
P (permeability) ([2]; pH 8): 0.21 ×10⁻⁶ cm/s
J (flux) ([2]; pH 5.9): 5.36 × 10^-7 mg/cm^2 /sec
J (flux) ([2]; pH 6.6): 7.74 × 10^-7 mg/cm^2 /sec
J (flux) ([2]; pH 7.4): 1.84 × 10^-6 mg/cm^2 /sec
J (flux) ([2]; pH 8): 2.10 × 10^-6 mg/cm^2 /sec
P (permeability) ([3]; mouse, pH 5.9): 1.2 ×10⁻⁶ cm/s
P (permeability) ([3]; mouse, pH 6.6): 1.33 ×10⁻⁶ cm/s
P (permeability) ([3]; mouse, pH 7.4): 1.32 ×10⁻⁶ cm/s
P (permeability) ([3]; mouse, pH 8): 1.65 ×10⁻⁶ cm/s
E (enhancement) [3, 7]: 22.39
E (enhancement) [3, 8]: 17.18
E (enhancement) [3, 9]: 7.17
E (enhancement) [3, 10]: 7.86

CCCCCCCCCCCCN1CCCCCC1=O [Azone, 1-n-dodecylazacycloheptan-2-one]
Absorbance in protein areas, peak position ([4]; untreated SC 1244): 1244.5 cm⁻¹
Absorbance in protein areas, peak position ([4]; untreated SC 1267): 1267.4 cm⁻¹
Absorbance in protein areas, peak position ([4]; untreated SC 1295): 1296.6 cm⁻¹
Absorbance in protein areas, peak position ([4]; untreated SC 1400.5): 1402 cm⁻¹
Absorbance in protein areas, peak position ([4]; untreated SC 1456): 1461.8 cm⁻¹
Absorbance in lipid areas, symmetric CH peak position ([4]; Table II, untreated 2848.3): 2850 cm⁻¹
Absorbance in lipid areas, asymmetric CH peak position ([4]; Table II, untreated 2916.5): 2920 cm⁻¹
Length of the 70% line, symmetric CH ([4]; Table III, untreated 8.6): 11.4 cm⁻¹
Length of the 70% line, asymmetric CH ([4]; Table III, untreated 17.5): 27.2 cm⁻¹
Asymm CH ([4]; Table VII, exposed SC): 2916.5 cm⁻¹
Symm CH ([4]; Table VII, exposed SC): 2848.3 cm⁻¹
Symm 70% line ([4]; Table VII, normal SC 8.6): 11.4 cm⁻¹
Asymm 70% line ([4]; Table VII, normal SC 17.5): 27.2 cm⁻¹
change in lipid structure / CH stretch bands of stratum corneum ([4]; in words, listed as Azone™): lengthening of both symmetric and asymmetric CH stretch lines but did not change their peak positions and 70% line lengthened
change in protein FTIR areas of stratum corneum ([4]; in words, listed as Azone™): did not change protein FTIR areas; also recorded: did not significantly effect the protein
change in protein FTIR areas of stratum corneum ([4]; in words, listed as azone): No significant changes occurred in the protein areas

CC(=O)[C@H]1CC[C@H]2[C@@H]3CCC4=CC(=O)CC[C@]4(C)[C@H]3CC[C@]12C [Progesterone]
J (flux) ([2]; pH 5.9): 2.30 × 10^-7 mg/cm^2 /sec
J (flux) ([2]; pH 6.6): 2.34 × 10^-7 mg/cm^2 /sec
J (flux) ([2]; pH 7.4): 2.34 × 10^-7 mg/cm^2 /sec and 2.92 × 10^-6 mg/cm^2 /sec
J (flux) ([2]; pH 8.0): 3.09 × 10^-6 mg/cm^2 /sec
E (enhancement) [3, 7]: 1.25
J (flux) [3, 7]: 2.88 × 10^-7 mg/cm^2 /sec
E (enhancement) [3, 8]: 1.50
J (flux) [3, 8]: 3.51 × 10^-7 mg/cm^2 /sec
E (enhancement) [3, 9]: 1.17
J (flux) [3, 9]: 2.73 × 10^-7 mg/cm^2 /sec
E (enhancement) [3, 10]: 1.17
P (permeability) [3, 10]: 0.289 ×10⁻⁶ cm/s and 3.61 ×10⁻⁶ cm/s

CC[N+](CC)(CC)CC.[Br-] [TEAB, tetraethylammonium bromide]
P (permeability) (mouse): 0.0254 ×10⁻⁶ cm/s
Papp (in vitro): 0.00495 ×10⁻⁶ cm/s

carbonic anhydrase: Carbonic anhydrase, MW 29,000
fragmentation of diffused polypeptide [5]: fractionated during the permeation process
breakdown of molecule on exposure to papain treated skin without diffusion ([5]; donor solution of the diffusion cell): no change or breakdown of the molecule

dioxolane [2% dioxolane]
P (permeability) [6]: 0.00521 ×10⁻⁶ cm/s

insulin: Insulin (Regular, Bovine), MW 6,000
fragmentation of diffused polypeptide [5]: determination of molecular fragmentation due to the permeation would be very difficult if not impossible

lysozyme: Lysozyme, MW 14,400
fragmentation of diffused polypeptide [5]: no significant difference in molecular size. The molecule remained intact and did not break apart

B1: Sigma papain: papain from Sigma Chemical (protein, UniProt P00784 134-345, looked up)
Papain: IPEYVDWRQKGAVTPVKNQGSCGSCWAFSAVVTIEGIIKIRTGNLNEYSEQELLDCDRRSYGCNGGYPWSALQLVAQYGIHYRNTYPYEGVQRYCRSREKGPYAAKTDGVRQVQPYNEGALLYSIANQPVSVVLEAAGKDFQLYRGGIFVGPCGNKVDHAVAAVGYGPNYILIKNSWGTGWGENGYIRIKRGTGNSYGVCGLYTSSFYPVKN
J (flux) [11]: 6.87 × 10^-4 mg/cm^2 /sec
P (permeability) [11]: 0.85 ×10⁻⁶ cm/s
J (flux) [12]: 1.46 × 10^-3 mg/cm^2 /sec
P (permeability) [12]: 1.81 ×10⁻⁶ cm/s

B2: Allergan papain: papain contained in a contact lens cleaning product (tablets for dissolution in water) wherein activators are included (protein, UniProt P00784 134-345, looked up)
Papain: IPEYVDWRQKGAVTPVKNQGSCGSCWAFSAVVTIEGIIKIRTGNLNEYSEQELLDCDRRSYGCNGGYPWSALQLVAQYGIHYRNTYPYEGVQRYCRSREKGPYAAKTDGVRQVQPYNEGALLYSIANQPVSVVLEAAGKDFQLYRGGIFVGPCGNKVDHAVAAVGYGPNYILIKNSWGTGWGENGYIRIKRGTGNSYGVCGLYTSSFYPVKN
modifications: contact lens cleaning tablet with activators
J (flux) [13]: 1.04 × 10^-3 mg/cm^2 /sec
P (permeability) [13]: 1.29 ×10⁻⁶ cm/s
